Reference: US10004732B2 (Novartis AG, priority 2014, dated 2018)

Legend:
PI 3-kinase alpha [1] = biological target: T1, PI 3-kinase alpha (Homo sapiens, UniProt P42336); test: Kinase Glo Luminescent Kinase Assay (Kglo), assay A; format: biochemical; details: read-out: Assay A PI3Kα IC50
PI 3-kinase beta [2] = biological target: T2, PI 3-kinase beta (Homo sapiens, UniProt P42338); test: Kinase Glo Luminescent Kinase Assay (Kglo), assay B; format: biochemical; details: read-out: Assay B PI3Kβ IC50
Target sequence in this assay (P42338 whole entry): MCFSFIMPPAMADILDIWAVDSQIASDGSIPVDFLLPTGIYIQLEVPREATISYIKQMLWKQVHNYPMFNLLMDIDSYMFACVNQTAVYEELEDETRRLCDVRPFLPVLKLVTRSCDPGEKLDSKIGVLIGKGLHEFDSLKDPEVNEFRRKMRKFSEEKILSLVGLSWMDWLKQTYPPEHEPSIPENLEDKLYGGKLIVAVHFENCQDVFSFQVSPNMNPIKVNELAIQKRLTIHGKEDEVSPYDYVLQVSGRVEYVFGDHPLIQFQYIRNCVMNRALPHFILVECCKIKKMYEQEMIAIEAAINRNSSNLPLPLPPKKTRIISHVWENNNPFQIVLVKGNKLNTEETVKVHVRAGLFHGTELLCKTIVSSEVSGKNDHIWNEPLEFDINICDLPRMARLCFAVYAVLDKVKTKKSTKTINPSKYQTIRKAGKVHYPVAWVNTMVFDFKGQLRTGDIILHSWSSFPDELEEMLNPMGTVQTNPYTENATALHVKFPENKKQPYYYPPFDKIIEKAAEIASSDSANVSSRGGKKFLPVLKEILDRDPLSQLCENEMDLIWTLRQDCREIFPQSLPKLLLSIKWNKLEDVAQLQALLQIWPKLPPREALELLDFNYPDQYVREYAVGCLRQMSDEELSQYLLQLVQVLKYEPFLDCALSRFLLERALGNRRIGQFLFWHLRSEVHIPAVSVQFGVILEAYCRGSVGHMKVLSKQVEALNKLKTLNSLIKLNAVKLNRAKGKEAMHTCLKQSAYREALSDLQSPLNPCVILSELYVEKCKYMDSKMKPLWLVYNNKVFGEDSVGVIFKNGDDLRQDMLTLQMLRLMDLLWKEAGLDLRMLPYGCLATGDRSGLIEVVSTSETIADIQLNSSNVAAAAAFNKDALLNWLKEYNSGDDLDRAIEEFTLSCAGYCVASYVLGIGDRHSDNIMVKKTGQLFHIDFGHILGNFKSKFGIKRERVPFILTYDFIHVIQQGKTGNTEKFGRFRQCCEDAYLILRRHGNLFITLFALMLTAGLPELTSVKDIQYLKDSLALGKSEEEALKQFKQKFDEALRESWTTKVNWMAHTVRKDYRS
Target sequence in this assay (P27986 461-568 partner): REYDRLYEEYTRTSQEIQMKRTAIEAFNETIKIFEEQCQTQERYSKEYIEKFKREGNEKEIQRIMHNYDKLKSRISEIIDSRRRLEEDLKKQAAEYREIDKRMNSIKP

Vps34 = Vps34 (Homo sapiens, UniProt Q8NEB9); test: Kinase Glo Luminescent Kinase Assay (Kglo), assay C; format: biochemical; details: read-out: Assay C VPS34 IC50
PI 4-kinase beta = PI 4-kinase beta (Homo sapiens, UniProt Q9UBF8); test: Kinase Glo Luminescent Kinase Assay (Kglo), assay D; format: biochemical; details: read-out: Assay D PI4Kβ IC50
PI 3-kinase gamma [3] = biological target: T3, PI 3-kinase gamma (Homo sapiens, UniProt P48736); test: TR-FRET Adapta assay, assay E; format: biochemical; details: read-out: Assay E PI3Kγ IC50
mTOR = mTOR (Homo sapiens, UniProt P42345); test: Lanthascreen kinase binding assay, assay G; details: read-out: Assay G mTOR IC50
Procedure: Lanthascreen™ Kinase Binding Assay for mTOR (G)
Binding of an inhibitor to the kinase competes for binding with the tracer, resulting in a loss of FRET.
50 nL of compound dilutions were dispensed onto white 384-well small volume polystyrene plate.

[4] = system: IL-8-induced neutrophil shape change in human whole blood; test: Whole blood neutrophil shape change assay (L); format: cell-based; details: Homo sapiens, Neutrophil, IL-8, human whole blood, read-out: Assay L WBSC IC50
PI 3-kinase delta [5] = biological target: T4, PI 3-kinase delta (Homo sapiens, UniProt O00329); test: TR-FRET Adapta assay, assay F; details: read-out: Assay F PI3Kδ IC50
Target sequence in this assay (O00329 whole entry): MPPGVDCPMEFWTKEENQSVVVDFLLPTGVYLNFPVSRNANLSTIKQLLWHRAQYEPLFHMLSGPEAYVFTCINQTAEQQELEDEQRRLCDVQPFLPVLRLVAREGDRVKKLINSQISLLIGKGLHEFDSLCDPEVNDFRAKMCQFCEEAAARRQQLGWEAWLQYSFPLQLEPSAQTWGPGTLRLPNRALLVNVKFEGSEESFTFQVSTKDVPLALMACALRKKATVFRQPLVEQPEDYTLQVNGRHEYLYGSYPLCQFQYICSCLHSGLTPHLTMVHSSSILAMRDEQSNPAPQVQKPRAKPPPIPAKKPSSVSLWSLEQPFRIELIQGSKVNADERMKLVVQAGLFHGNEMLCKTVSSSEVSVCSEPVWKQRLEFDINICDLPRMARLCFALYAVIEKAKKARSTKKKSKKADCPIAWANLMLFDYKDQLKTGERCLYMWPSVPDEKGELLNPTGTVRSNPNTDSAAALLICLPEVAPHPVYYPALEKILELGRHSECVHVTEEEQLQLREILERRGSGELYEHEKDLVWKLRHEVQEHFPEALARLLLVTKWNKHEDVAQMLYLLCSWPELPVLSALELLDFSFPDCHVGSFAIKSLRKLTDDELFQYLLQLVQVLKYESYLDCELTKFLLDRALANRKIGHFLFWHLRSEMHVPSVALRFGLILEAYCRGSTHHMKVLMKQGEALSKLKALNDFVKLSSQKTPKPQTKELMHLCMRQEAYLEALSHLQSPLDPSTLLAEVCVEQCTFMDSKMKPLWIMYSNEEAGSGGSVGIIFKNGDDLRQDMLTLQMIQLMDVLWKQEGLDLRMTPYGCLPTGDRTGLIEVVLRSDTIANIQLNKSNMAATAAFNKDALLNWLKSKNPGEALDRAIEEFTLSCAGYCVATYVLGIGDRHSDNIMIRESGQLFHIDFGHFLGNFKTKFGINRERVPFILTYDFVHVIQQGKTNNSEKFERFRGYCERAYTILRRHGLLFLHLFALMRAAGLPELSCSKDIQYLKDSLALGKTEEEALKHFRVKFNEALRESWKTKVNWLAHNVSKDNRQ
Target sequence in this assay (P27986 461-568 partner): as the sequence (P27986 461-568 partner) above

PI 3-kinase alpha [6] = biological target: T1, PI 3-kinase alpha; test: Cellular assay H1, p-Akt (S473) in Rat-1 cells, Surefire format; format: cell-based; details: non-asterisked data: version H1 (Surefire format), Rat-1 cells; read-out: Assay H PI3Kα IC50
PI 3-kinase beta [7] = biological target: T2, PI 3-kinase beta; test: Cellular assay I1, p-Akt (S473) in Rat-1 cells, Surefire format; format: cell-based; details: non-asterisked data: version I1 (Surefire format), Rat-1 cells; read-out: Assay I PI3Kβ IC50
Target sequence in this assay (P42338 whole entry): as the sequence (P42338 whole entry) above
Target sequence in this assay (Q63787 whole entry partner): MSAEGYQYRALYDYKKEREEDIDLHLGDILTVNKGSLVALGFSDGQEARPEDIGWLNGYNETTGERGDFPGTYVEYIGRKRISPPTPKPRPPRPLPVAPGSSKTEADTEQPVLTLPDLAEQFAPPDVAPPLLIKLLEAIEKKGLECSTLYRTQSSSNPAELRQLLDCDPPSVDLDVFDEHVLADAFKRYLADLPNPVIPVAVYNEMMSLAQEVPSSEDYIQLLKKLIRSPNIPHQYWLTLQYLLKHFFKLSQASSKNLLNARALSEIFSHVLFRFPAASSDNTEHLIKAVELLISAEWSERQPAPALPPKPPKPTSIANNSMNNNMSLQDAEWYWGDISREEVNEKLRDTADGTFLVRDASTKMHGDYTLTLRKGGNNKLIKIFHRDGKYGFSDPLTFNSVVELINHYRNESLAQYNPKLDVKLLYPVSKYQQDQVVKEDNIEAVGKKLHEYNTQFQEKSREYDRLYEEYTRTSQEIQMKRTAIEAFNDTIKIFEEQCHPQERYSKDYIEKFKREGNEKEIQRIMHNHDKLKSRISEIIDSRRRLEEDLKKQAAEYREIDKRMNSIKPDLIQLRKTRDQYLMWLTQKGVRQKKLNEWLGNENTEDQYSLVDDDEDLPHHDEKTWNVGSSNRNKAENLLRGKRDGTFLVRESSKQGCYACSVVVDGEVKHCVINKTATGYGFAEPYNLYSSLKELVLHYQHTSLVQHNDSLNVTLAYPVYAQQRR

PI 3-kinase delta [8] = biological target: T4, PI 3-kinase delta; test: Cellular assay J1, p-Akt (S473) in Rat-1 cells, Surefire format; format: cell-based; details: non-asterisked data: version J1 (Surefire format), Rat-1 cells; read-out: Assay J PI3Kδ IC50
Target sequence in this assay (O00329 whole entry): as the sequence (O00329 whole entry) above
Target sequence in this assay (Q63787 whole entry partner): as the sequence (Q63787 whole entry partner) above

PI 3-kinase gamma [9] = biological target: T3, PI 3-kinase gamma; test: Cellular U937 AKT assay K1 (MSD); format: cell-based; details: U937 cells, K1 format; read-out: Assay K1 PI3Kγ IC50
[10] = Microsomal clearance assay (M); details: intrinsic clearance in rat liver microsomes
Procedure: The experiments were performed in 96-well glass plates at 37° C. on an automated Tecan EVO platform. Test compounds at a concentration of 10 mM in pure DMSO were diluted 1:1000 in water to 10 μM. […] Reactions were initiated by the addition of 150 μL of a cofactor solution containing 2 mM NADPH.

Sequence of PI 4-kinase beta (Q9UBF8 whole entry): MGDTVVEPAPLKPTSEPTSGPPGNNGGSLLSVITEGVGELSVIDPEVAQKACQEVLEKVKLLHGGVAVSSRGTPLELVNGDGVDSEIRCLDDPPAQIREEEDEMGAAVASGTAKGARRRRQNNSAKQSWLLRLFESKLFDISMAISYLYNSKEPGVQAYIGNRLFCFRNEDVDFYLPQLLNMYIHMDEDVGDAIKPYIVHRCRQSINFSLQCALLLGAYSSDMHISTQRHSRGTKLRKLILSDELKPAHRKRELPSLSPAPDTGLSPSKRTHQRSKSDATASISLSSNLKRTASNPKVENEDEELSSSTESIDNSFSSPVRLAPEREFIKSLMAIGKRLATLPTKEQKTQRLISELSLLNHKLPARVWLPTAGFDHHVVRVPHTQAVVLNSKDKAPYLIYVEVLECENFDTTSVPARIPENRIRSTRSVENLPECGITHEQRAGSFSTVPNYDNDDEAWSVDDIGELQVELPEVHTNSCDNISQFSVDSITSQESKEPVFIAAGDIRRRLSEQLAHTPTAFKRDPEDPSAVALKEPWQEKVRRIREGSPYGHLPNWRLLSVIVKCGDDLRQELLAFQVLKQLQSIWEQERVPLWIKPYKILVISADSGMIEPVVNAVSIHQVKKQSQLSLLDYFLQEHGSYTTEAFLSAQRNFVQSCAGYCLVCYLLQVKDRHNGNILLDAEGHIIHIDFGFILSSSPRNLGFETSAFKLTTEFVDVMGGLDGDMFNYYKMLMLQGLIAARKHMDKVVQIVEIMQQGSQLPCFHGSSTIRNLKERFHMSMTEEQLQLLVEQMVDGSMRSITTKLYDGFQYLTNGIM
T3 sequence (P48736 whole entry): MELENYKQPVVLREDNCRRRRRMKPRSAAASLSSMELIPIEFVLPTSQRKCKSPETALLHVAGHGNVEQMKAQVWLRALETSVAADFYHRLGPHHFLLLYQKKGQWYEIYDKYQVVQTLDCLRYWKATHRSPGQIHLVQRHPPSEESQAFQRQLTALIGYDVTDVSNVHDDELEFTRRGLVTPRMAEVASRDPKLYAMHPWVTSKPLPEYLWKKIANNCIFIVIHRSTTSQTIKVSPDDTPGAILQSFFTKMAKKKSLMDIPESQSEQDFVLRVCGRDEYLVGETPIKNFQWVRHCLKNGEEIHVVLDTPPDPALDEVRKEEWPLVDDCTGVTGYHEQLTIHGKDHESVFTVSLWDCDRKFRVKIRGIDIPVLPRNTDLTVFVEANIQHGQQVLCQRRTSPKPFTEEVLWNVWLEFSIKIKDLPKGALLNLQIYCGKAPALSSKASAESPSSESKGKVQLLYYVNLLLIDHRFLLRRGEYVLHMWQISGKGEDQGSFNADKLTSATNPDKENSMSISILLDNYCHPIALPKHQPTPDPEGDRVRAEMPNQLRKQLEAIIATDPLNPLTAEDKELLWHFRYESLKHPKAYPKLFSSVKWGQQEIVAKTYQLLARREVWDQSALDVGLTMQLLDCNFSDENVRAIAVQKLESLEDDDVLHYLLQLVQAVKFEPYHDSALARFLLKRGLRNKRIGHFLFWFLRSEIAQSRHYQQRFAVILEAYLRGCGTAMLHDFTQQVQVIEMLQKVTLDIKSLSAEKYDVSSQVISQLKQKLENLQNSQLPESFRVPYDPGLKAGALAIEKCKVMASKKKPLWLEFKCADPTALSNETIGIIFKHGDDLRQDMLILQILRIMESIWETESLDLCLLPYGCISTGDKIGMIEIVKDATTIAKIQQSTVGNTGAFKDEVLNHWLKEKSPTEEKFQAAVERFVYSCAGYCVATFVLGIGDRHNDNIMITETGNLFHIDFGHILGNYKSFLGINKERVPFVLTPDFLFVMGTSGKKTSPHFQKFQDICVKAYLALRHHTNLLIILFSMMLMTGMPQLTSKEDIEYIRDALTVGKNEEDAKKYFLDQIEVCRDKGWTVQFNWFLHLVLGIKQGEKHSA

SMILES | IC50 (PI 3-kinase alpha [1]) [µM] | IC50 (PI 3-kinase beta [2]) [µM] | IC50 (Vps34) [µM] | IC50 (PI 4-kinase beta) [µM] | IC50 (PI 3-kinase gamma [3]) [µM] | IC50 (mTOR) [µM] | IC50 [4] [µM] | IC50 (PI 3-kinase delta [5]) [µM] | IC50 (PI 3-kinase alpha [6]) [µM] | IC50 (PI 3-kinase beta [7]) [µM] | IC50 (PI 3-kinase delta [8]) [µM] | IC50 (PI 3-kinase gamma [9]) [µM] | Assay M RLM CI(int) [10] [µL/min/mg]
Cc1ccc(S(=O)(=O)NC2CCC2)cc1-c1cnc(N)c(-n2cncn2)n1 [Example 127.54] | 0.18 | 1.1 | > 10 | 2.6 | 0.032 | 1.8 | > 100 | 1.1 | – | – | – | – | –
Cc1cc(Cl)c(S(=O)(=O)NCC(C)(C)O)cc1-c1cnc(N)c(-n2cncn2)n1 [Example 124, 5-(5-Amino-6-(1H-1,2,4-triazol-1-yl)pyrazin-2-yl)-2-chloro-N-(2-hydroxy-2-methylpropyl)-4-methylbenzenesulfonamide] | 0.04 | 0.1 | > 10 | 0.42 | 0.022 | 0.71 | – | 0.16 | 0.25 | 0.81 | 0.29 | 0.038 | 79
Cc1ccc(S(=O)(=O)NCCC(C)(C)O)cc1-c1cnc(N)c(-n2cnc(C(C)C)n2)n1 [Example 66, 3-(5-Amino-6-(3-isopropyl-1H-1,2,4-triazol-1-yl)pyrazin-2-yl)-N-(3-hydroxy-3-methylbutyl)-4-methylbenzenesulfonamide] | 0.19 | > 9.1 | > 9.1 | 7.94 | 0.006 | 5.98 | – | 0.08 | 0.99 | 5.92 | 0.73 | 0.109 | 311
Cc1ccc(S(=O)(=O)NCCC(C)(C)O)cc1-c1cnc(N)c(-c2cnn(Cc3ccncc3)c2)n1 [Example 119.39] | 0.1 | 2.8 | > 9.1 | 6.5 | 0.006 | 6.9 | – | 0.04 | 5.04 | 2.15 | 1.61 | 0.034 | 203
Cc1ccc(S(=O)(=O)NCCC(F)(F)F)cc1-c1cnc(N)c(-n2cncn2)n1 [Example 127.31] | 0.19 | 1.55 | > 10 | 4.87 | 0.067 | 7.95 | – | 0.45 | 0.85 | 1.71 | 1.05 | 0.103 | 192
CCOc1ccc(-c2nc(-c3cc(S(=O)(=O)NCCC(C)(C)O)ccc3C)cnc2N)cn1 [Example 119.13] | 0.58 | > 9.1 | > 9.1 | 4.14 | 0.098 | > 9.1 | – | 0.45 | 2.45 | 6.75 | 3.26 | > 10 | 98
Cc1cc(F)c(S(=O)(=O)NCCC(C)(C)O)cc1-c1cnc(N)c(-n2cncn2)n1 [Example 116, 5-(5-Amino-6-(1H-1,2,4-triazol-1-yl)pyrazin-2-yl)-2-fluoro-N-(3-hydroxy-3-methylbutyl)-4-methylbenzenesulfonamide] | 1.2 | > 9.1 | > 9.1 | 8.1 | 0.028 | > 9.1 | – | 0.3 | 2.31 | 4.75 | 2.12 | 0.197 | 35
Cc1cc(-c2nc(-c3cc(S(=O)(=O)NCC4CCCO4)ccc3C)cnc2N)ccn1 (centres unmarked) [Example 129.17, 3-(5-amino-6-(2-methylpyridin-4-yl)pyrazin-2-yl)-4-methyl-N-((tetrahydrofuran-2-yl)methyl)benzenesulfonamide] | 0.35 | 5.5 | > 9.1 | > 9.1 | 0.056 | > 9.1 | – | 0.42 | 2.5 | 3.72 | 1.94 | 0.354 | 104

Continued, values first:

IC50 (PI 3-kinase alpha [1]) [µM] | IC50 (PI 3-kinase beta [2]) [µM] | IC50 (Vps34) [µM] | IC50 (PI 4-kinase beta) [µM] | IC50 (PI 3-kinase gamma [3]) [µM] | IC50 (mTOR) [µM] | IC50 [4] [µM] | IC50 (PI 3-kinase delta [5]) [µM] | IC50 (PI 3-kinase alpha [6]) [µM] | IC50 (PI 3-kinase beta [7]) [µM] | IC50 (PI 3-kinase delta [8]) [µM] | IC50 (PI 3-kinase gamma [9]) [µM] | Assay M RLM CI(int) [10] [µL/min/mg] | SMILES
0.37 | 4.19 | 7.15 | > 9.1 | 0.042 | > 9.1 | – | 0.49 | 6.17 | 6.6 | 3.95 | 0.068 | 55 | Cc1ccc(S(=O)(=O)NCCC(O)C(F)(F)F)cc1-c1cnc(N)c(-c2cnn(C)c2)n1 (centres unmarked) [Example 51, 3-(5-Amino-6-(1-methyl-1H-pyrazol-4-yl)pyrazin-2-yl)-4-methyl-N-(4,4,4-trifluoro-3-hydroxybutyl)benzenesulfonamide]
2.9 | > 9.1 | > 9.1 | > 9.1 | 0.053 | > 9.1 | 8.95 | 1 | – | – | – | – | – | Cc1cc(-c2nc(-c3cc(S(=O)(=O)NC4CCN(C(C)C)CC4)ccc3C)cnc2N)ccn1 [Example 129.21, 3-(5-amino-6-(2-methylpyridin-4-yl)pyrazin-2-yl)-N-(1-isopropylpiperidin-4-yl)-4-methylbenzenesulfonamide]
0.18 | 3.71 | > 9.1 | 4.47 | 0.064 | 4.19 | – | 0.48 | 3.37 | > 10 | 3.52 | 0.203 | 48 | Cc1cc(-c2nc(-c3cc(S(=O)(=O)N[C@H]4CC[C@@H](O)CC4)ccc3C)cnc2N)ccn1 [Example 76, 3-(5-Amino-6-(2-methylpyridin-4-yl)pyrazin-2-yl)-N-((1s,4s)-4-hydroxycyclohexyl)-4-methylbenzenesulfonamide]
1.2 | 6.2 | > 10 | 5.9 | 0.06 | – | 2.49 | 3.2 | – | – | – | – | – | Cc1ccc(S(=O)(=O)N[C@H](C#N)CO)cc1-c1cnc(N)c(-n2cncn2)n1 [Example 127.48]
0.11 | 4.57 | > 9.1 | 3.63 | 0.04 | 8.35 | – | 0.22 | 1.54 | 3.08 | 1.3 | 0.093 | 24 | Cc1ccc(S(=O)(=O)N[C@H]2CC[C@H](O)CC2)cc1-c1cnc(N)c(-c2ccnc(F)c2)n1 [Example 60, Trans-3-(5-Amino-6-(2-fluoropyridin-4-yl)pyrazin-2-yl)-N-(-4-hydroxycyclohexyl)-4-methylbenzenesulfonamide]
0.09 | 7.49 | > 9.1 | 7.46 | 0.044 | 3.7 | – | 0.13 | 0.49 | 1.77 | 0.87 | 3.64 | 81 | COc1cc(-c2nc(-c3cc(S(=O)(=O)NCCC(C)(C)O)ccc3C)cnc2N)ccn1 [Example 119.3]
5.47 | > 9.1 | > 9.1 | > 9.1 | 1.82 | > 9.1 | – | 5.81 | 8.97 | > 10 | 8.18 | 0.479 | 56 | Cc1ccc(S(=O)(=O)NCCC(C)(C)O)cc1-c1cnc(N)c(-n2ccnc2)n1 [Example 61, 3-(5-Amino-6-(1H-imidazol-1-yl)pyrazin-2-yl)-N-(3-hydroxy-3-methylbutyl)-4-methylbenzenesulfonamide]
0.42 | 3.25 | > 10 | 6 | 0.025 | > 10 | – | 0.03 | > 10 | 3.2 | 6.49 | 0.091 | 73 | Cc1ccc(S(=O)(=O)NCCC(C)(C)O)cc1-c1cnc(N)c(-c2cnn(CCN3CCOCC3)c2)n1 [Example 119.41]
0.09 | 3.5 | > 9.1 | 6.3 | 0.012 | 4.6 | – | 0.03 | 6.57 | 2.21 | 1.03 | 0.034 | 167 | Cc1ccc(S(=O)(=O)NCCC(C)(C)O)cc1-c1cnc(N)c(-c2cnn(Cc3cccnc3)c2)n1 [Example 119.38]
